Experimental data reported in patent US4950775A, “Antihypercholesterolemic compounds and synthesis thereof” (University of California, priority 1985, dated 1990).

How the values were obtained:
HMG CoA reductase [1] = molecular target: T1, HMG CoA reductase (Rattus norvegicus, UniProt P51639); assay: Inhibition of HMG CoA reductase catalysis in rat liver microsomes (radioactive assay of mevalonate production); type: biochemical; settings: for IC50: pH 6.8, 37° C., 15-min. incubation, four concentrations in triplicate, 14C-HMG CoA substrate
T1 construct: measured with rat liver microsomes; from tissue; host or cells: rat liver microsomes
T1 sequence (P51639 1-887): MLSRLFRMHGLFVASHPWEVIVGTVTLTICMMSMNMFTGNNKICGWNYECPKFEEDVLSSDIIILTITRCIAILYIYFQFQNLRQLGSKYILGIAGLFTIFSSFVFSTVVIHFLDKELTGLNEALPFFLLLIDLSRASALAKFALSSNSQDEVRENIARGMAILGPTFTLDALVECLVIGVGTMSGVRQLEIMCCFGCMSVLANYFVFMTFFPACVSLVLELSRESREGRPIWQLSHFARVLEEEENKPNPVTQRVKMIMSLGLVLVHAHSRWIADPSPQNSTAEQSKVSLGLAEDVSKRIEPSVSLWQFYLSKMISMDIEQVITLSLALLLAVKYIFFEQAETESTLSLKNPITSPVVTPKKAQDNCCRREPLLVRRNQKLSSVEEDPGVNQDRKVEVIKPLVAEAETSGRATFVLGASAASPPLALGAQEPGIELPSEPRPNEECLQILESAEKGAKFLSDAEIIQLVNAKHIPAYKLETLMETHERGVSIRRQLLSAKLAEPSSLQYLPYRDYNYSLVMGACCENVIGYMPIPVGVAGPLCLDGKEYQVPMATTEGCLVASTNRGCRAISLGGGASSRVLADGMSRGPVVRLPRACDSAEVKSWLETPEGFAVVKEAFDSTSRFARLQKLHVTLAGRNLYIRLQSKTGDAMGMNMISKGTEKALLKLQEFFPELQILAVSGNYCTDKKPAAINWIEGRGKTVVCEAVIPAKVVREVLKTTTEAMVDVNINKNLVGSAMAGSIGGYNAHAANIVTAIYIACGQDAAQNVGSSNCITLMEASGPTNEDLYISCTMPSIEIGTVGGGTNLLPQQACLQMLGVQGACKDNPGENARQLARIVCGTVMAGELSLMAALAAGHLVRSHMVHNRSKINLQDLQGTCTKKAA
Protocol: The antihypercholesterolemic activity of each novel compound was measured using the following test. The potency of compactin and each analog as an inhibitor of HMG CoA reductase catalysis was measured with rat liver microsomes. […] Four concentrations of each compound ranging over four appropriate orders of magnitude were tested. The effect on the initial velocity of mevalonate production was determined in a radioactive assay system. […] All components but the ^14 C-HMG CoA were preincubated at 37° C. for 10 min. The inhibitor in 10 μL of DMSO was then added (control samples received DMSO only) and a 15-min. incubation was initiated by the addition of substrate. Catalysis was terminated with 33% aqueous KOH (50 μL). After 30 min., 25 μL of aqueous 0.05% bromophenol, 70000 dpm of (5-^3 H)-mevalono-lactone in 25 μL of H2 O (recovery standard) and 90 μL of 5 N aqueous HCl were added. […] Quantities of collected ^14 C-mevalonate mevalonate were corrected for ^3 -mevalonate recovery before conversion to catalytic rates. Each inhibitor concentration was assayed in triplicate and conversion of (S)-HMG Coenzyme A to product was always less than 20%. Rates in the presence of inhibitors were compared to control rates to generate % inhibition values. When % inhibition was plotted against inhibitor concentration, the resulting curve provided an IC50 value for the inhibitor in question, IC50 being defined as the concentration required to inhibit the enzyme by 50% of control.

HMG CoA reductase [2] = settings: background, U.S. Pat. Nos. 4,049,495, 4,137,332, 3,983,140; cited from earlier work
[3] = system: biosynthesis of cholesterol; settings: background; cited from earlier work

| SMILES | IC50 (HMG CoA reductase [1]) | antihypercholesterolemic activity (HMG CoA reductase inhibition, in words) (HMG CoA reductase [1]) | inhibition of HMG CoA reductase (in words) (HMG CoA reductase [2]) | inhibition of the biosynthesis of cholesterol (in words) [3] |
| --- | --- | --- | --- | --- |
| CC[C@H](C)C(=O)O[C@H]1C[C@@H](C)C=C2C=C[C@H](C)[C@H](CC[C@@H]3C[C@@H](O)CC(=O)O3)[C@H]21 [Formula 2] | – | – | display utility as inhibitors of the enzyme hydroxymethylglutaryl coenzyme A reductase | potent as inhibitors of the biosynthesis of cholesterol |
| CC[C@H](C)C(=O)O[C@H]1CCC=C2C=C[C@H](C)[C@H](CC[C@@H]3C[C@@H](O)CC(=O)O3)[C@H]21 [Formula 1] | 9 nM | – | display utility as inhibitors of the enzyme hydroxymethylglutaryl coenzyme A reductase | potent as inhibitors of the biosynthesis of cholesterol |

Further lines, with some results ahead:

| IC50 (HMG CoA reductase [1]) | SMILES | antihypercholesterolemic activity (HMG CoA reductase inhibition, in words) (HMG CoA reductase [1]) | inhibition of HMG CoA reductase (in words) (HMG CoA reductase [2]) | inhibition of the biosynthesis of cholesterol (in words) [3] |
| --- | --- | --- | --- | --- |
| 230 nM | CC[C@H](C)C(=O)O[C@H]1CCC=C2C=C[C@H](C)[C@H](/C=C/C(=O)C[C@@H](O)CC(=O)O)[C@H]21 [Formula 41*] | possessing antihypercholesterolemic activity | – | – |
| 300 nM | CC[C@H](C)C(=O)O[C@H]1CCC=C2C=C[C@H](C)[C@H](COC(=O)C[C@@H](O)CC(=O)O)[C@H]21 [Formula 63*, (1S,2S,8S,8aR)-1-[(S)-(3-Hydroxy-4-carboxybutyryl)oxymethyl]-2-methyl-8-[(S)-(2methylbutyryl)oxy]-1,2,6,7,8a-hexahydronaphthalene] | possessing antihypercholesterolemic activity | – | – |
| 16 nM | CC[C@H](C)C(=O)O[C@H]1CCC=C2C=C[C@H](C)[C@H](CCC(=O)C[C@@H](O)CC(=O)O)[C@H]21 [Formula 53] | possessing antihypercholesterolemic activity | – | – |
